Laboratory results published in patent US7452865B2, “Antagonistic analogs of GH RH (2003)” (The Administrare's of the Tulane Educational Fund, priority 2004, dated 2008).
Where “and” joins values, the source holds several entries; their conditions need not be identical. Identical values can stand only once. Marks after values point to notes of the source that are not given here. Square brackets hold non-standard residues; d marks the D form. Peptide text beside a SMILES is read from it. * marks the point of attachment. Phe(4-Cl) = N[C@@H](Cc1ccc(Cl)cc1)C(=O)O; hArg = N=C(N)NCCCC[C@H](N)C(=O)O; Nle = CCCC[C@H](N)C(=O)O; Octanoyl = CCCCCCCC(=O)*; Abu = CC[C@H](N)C(=O)O

Assays:
[1] = test system: GH-RH receptor isoforms on membrane fractions of human PC-3 prostate tumors; assay type: binding; settings: for binding affinities to the tumoral receptors for GH-RH (in words): general statement
Description: Ligand competition assays with ^125I-labeled GH-RH antagonist JV-1-42 were used to determine the binding affinities of GH-RH analogs to the GH-RH receptor isoforms on membrane fractions of human PC-3 prostate tumors. The methods used have been described in detail (Halmos G, Schally A V, Varga J L, Plonowski A, Rekasi Z, Czompoly T, Proc Natl Acad Sci USA 97: 10555-10560, 2000; Halmos G, Schally A V, Czompoly T, Krupa M, Varga J L, Rekasi Z, J Clin Endocrinol Metab 87: 4707-4714, 2002), hereby incorporated by reference. Briefly, radioiodinated derivatives of JV-142 are prepared by the chloramine-T method. PC-3 tumors, grown as xenografts in nude mice, are used to prepare crude membranes. PC-3 membrane homogenates are incubated with [^125I]JV-142 and increasing concentrations (10^−12 to 10^−6 M) of nonradioactive antagonist peptides as competitors. The pellet is separated by centrifugation and counted for radioactivity in a gamma-counter. The final binding affinities are estimated by K1 (dissociation constant of the inhibitor-receptor complex) and are determined by the Ligand PC and McPherson computer programs of Munson and Rodbard (P. J. Munson and D. Rodbard, Anal. Biochem. […]: 220-239, 1980). Relative affinities (R.A.) compared to reference peptides such as JV-1-36 or JV-1-38, are calculated as the ratio of K1 of the reference peptide to the K, of the tested GH-RH antagonist.

[2] = test system: hGH-RH(1-29)NH2 induced GH release; test: Inhibition of GH release in superfused rat pituitary system; assay type: cell-based; settings: for GH response (% of control) 0 min / GH response (% of control) 30 min / GH response (% of control) 60 min / GH response (% of control) 90 min / GH response (% of control) 120 min: antagonist 30 nM; for GH response (% of control) 0 min: 1 nM hGH-RH(1-29)NH2 at 0 min; for GH response (% of control) 30 min: 1 nM hGH-RH(1-29)NH2 at 30 min; for GH response (% of control) 60 min: 1 nM hGH-RH(1-29)NH2 at 60 min; for GH response (% of control) 90 min: 1 nM hGH-RH(1-29)NH2 at 90 min; for GH response (% of control) 120 min: 1 nM hGH-RH(1-29)NH2 at 120 min; for endocrine antagonistic potency: inhibition of the GH release stimulated by hGH-RH(1-29)NH2 (in words): general statement, in vitro and in vivo
Procedure: The analogs were tested in vitro in a test described earlier (S. Vigh and A. V Schally, Peptides 5:241-[…], 1984) with modification (Z. Rekasi and A. V. Schally, P.N.A.S. 90:2146-2149, 1993).
Briefly, the cells are preincubated with peptides for 9 minutes (3 mL) at various concentrations. Immediately after the incubation, 1 nM hGH-RH(1-29)NH2 is administered for 3 minutes (1 mL) 10 minute response). To check the duration of the antagonistic effect of the analogue, 1 nM hGH-RH(1-29)NH2 is applied 30, 60, 90, and 120 minutes later for 3 minutes [30, 60, 90, 120 min responses]. Net integral values of the GH responses are evaluated. GH responses are compared to and expressed as percent of the original GH response induced by 1 nM GH-RH(1-29)NH2 The effect of the new antagonists are compared to that of [Ac-Tyr^1, D-Arg^2]hGH-RH(1-29)NH2, the “Standard antagonist”.
Rat GH levels in aliquots of undiluted and diluted superfusion samples were measured by double-antibody radioimmunoassay using materials supplied by the National Hormone and Pituitary Program, Baltimore, Md. The results of RIA were analyzed with a computer program developed in our institute (V. Csernus and A. V. Schally, in Neuroendocrine Research Methods, Harwood Academic (Greenstein, B. D. ed., London, pp. 71-109, 1991), hereby incorporated by reference.

[3] = test system: PC-3 human prostate cancer xenografts; test: PC-3 xenografts in nude mice, Experiment 3: tumor growth; assay type: in vivo
Procedure: Male nude mice were implanted s.c. with 3 mm^3 pieces of PC-3 human hormone-independent prostate cancer tissue on both flanks. When tumors reached a volume of approximately 65 mm^3, the mice were divided into 7 experimental groups with 8 to 9 animals in each group and received single daily injections for 28 days as follows: 1. Control (vehicle solution); 2. JV-1-38 (10 μg/day s.c.); 3. Peptide 35 (10 μg/day s.c.); 4. Peptide 36 (10 μg/day s.c.); 5. Peptide 37 (10 μd/day s.c.); 6. Peptide 39 (10 μg/day s.c.); 7. Peptide 41 (10 μg/day s.c.). Tumor volumes were measured twice a week. The experiment was ended on day 28 by sacrificing the mice under Isofurane anesthesia. Resulting tumors were cleaned, weighed, and snapfrozen until further analyses. Trunk blood was collected from the abdominal aorta and serum was separated for RIA measurement of IGF-I. Statistical analyses of the measurement results were done by ANOVA followed by Fisher test; data are presented as the means±S.E.

[4] = 10 μg/day s.c., 28 days, vs control

Row | Relative Affinities (R.A.) to membrane receptors on PC-3 human prostate cancers [1] | binding affinities to the tumoral receptors for GH-RH (in words) [1] | Molecule | GH response (% of control) 0 min [2] | GH response (% of control) 30 min [2] | GH response (% of control) 60 min [2] | GH response (% of control) 90 min [2] | GH response (% of control) 120 min [2] | endocrine antagonistic potency: inhibition of the GH release stimulated by hGH-RH(1-29)NH2 (in words) [2] | Tumor volume (mm^3) Final ([3]; 10 μg/day s.c., 28 days) | Tumor volume doubling time ([3]; 10 μg/day s.c., 28 days) | Tumor weight ([3]; 10 μg/day s.c., 28 days) | Tumor volume Final (% inhibition) [3, 4] | Tumor weight (% inhibition) [3, 4] | Tumor volume (mm^3) Initial ([3]; at start of treatment)
1 | 53 | extremely high binding affinities | CCCCCCCC(=O)N[C@@H](Cc1ccc(O)cc1)C(=O)N[C@H](CCCNC(=N)N)C(=O)N[C@@H](CC(=O)O)C(=O)N[C@@H](C)C(=O)N[C@H](C(=O)N[C@@H](Cc1ccc(Cl)cc1)C(=O)N[C@H](C(=O)N[C@@H](CC(N)=O)C(=O)N[C@@H](CCCNC(=N)N)C(=O)N[C@@H](Cc1ccc(O)cc1)C(=O)N[C@@H](CCCNC(=N)N)C(=O)N[C@@H](CCCCN)C(=O)N[C@H](C(=O)N[C@@H](CC(C)C)C(=O)N[C@@H](CC)C(=O)N[C@@H](CCC(N)=O)C(=O)N[C@@H](CC(C)C)C(=O)N[C@@H](CO)C(=O)N[C@@H](C)C(=O)N[C@@H](CCCNC(=N)N)C(=O)N[C@@H](CCCCN)C(=O)N[C@@H](CC(C)C)C(=O)N[C@@H](CC(C)C)C(=O)N[C@@H](CCC(N)=O)C(=O)N[C@@H](CC(=O)O)C(=O)N[C@H](C(=O)N[C@@H](CCCC)C(=O)N[C@H](CCCNC(=N)N)C(=O)N[C@@H](CCCCNC(=N)N)C(N)=O)[C@@H](C)CC)C(C)C)[C@@H](C)O)[C@@H](C)CC [Peptide 4, [CH3(CH2)6CO-Tyr^1, D-Arg^2, Phe(pCl)^6, Arg^9, Abu^15, Nle^27, D-Arg^28, Har^29]hGH-RH(1-29)NH2] (Octanoyl-Y[dR]DAI[Phe(4-Cl)]TNRYRKVL[Abu]QLSARKLLQDI[Nle][dR][hArg]-NH2) | 5 % of control | 0 % of control | 12 % of control | 8 % of control | 18 % of control | high endocrine antagonistic potencies | – | – | – | – | – | –
2 | – | extremely high binding affinities | [CH3(CH2)6CO-Tyr^1, D-Arg^2, Phe(pCl)^6, Ala^8, His^9, Tyr(Et)^10, His^11, Abu^15, Nle^27, D-Arg^28, Har^29]hGH-RH(1-29)NHEt [Peptide 97] | – | – | – | – | – | – | – | – | – | – | – | –
3 | – | – | [PhAc-Tyr^1, D-Arg^2, Phe(pCl)^6, Cit^9, Abu^15, Nle^27, Har^28, D-Arg^29]hGH-RH(1-29)NH2 [Peptide 28] | 68 % of control | 7 % of control | 8 % of control | 20 % of control | 34 % of control | – | – | – | – | – | – | –
4 | – | – | [PhAc-Tyr^1, D-Arg^2, Phe(pCl)^6, D-Ala^8, Arg^9, Abu^15, Nle^27, D-Arg^28, Har^29]hGH-RH(1-29)NH2 [Peptide 26] | 20 % of control | 43 % of control | 66 % of control | 48 % of control | 44 % of control | – | – | – | – | – | – | –
5 | – | – | [PhAc-Tyr^1, D-Arg^2, Phe(pCl)^6, Har^9, 3-Pal^10, Abu^15, Nle^27, D-Arg^28, Har^29]hGH-RH(1-29)NH2 [Peptide 40] | 42 % of control | 29 % of control | 26 % of control | 36 % of control | 30 % of control | – | – | – | – | – | – | –
6 | – | – | [PhAc-Tyr^1, D-Arg^2, Phe(pCl)^6, Har^9, Phe(pNH2)^10, Abu^15, Nle^27, D-Arg^28, Har^29]hGH-RH(1-29)NH2 [Peptide 37] | 33 % of control | 12 % of control | 15 % of control | 15 % of control | 19 % of control | high endocrine antagonistic potencies | 323 ± 68.0* mm^3 | 12.7 ± 2.03 days | 440 ± 104 mg | (57%) | (37%) | 60.0 ± 13.0 mm^3
7 | – | – | [PhAc-Tyr^1, D-Arg^2, Phe(pCl)^6, Har^9, Tyr(Me)^10, Abu^15, Nle^27, D-Arg^28, Agm^29]hGH-RH(1-29) [Peptide 52] | 86 % of control | 13 % of control | 45 % of control | 26 % of control | 55 % of control | – | – | – | – | – | – | –
8 | – | – | [PhAc-Tyr^1, D-Arg^2, Phe(pCl)^6, Har^9, Tyr(Me)^10, Abu^15, Nle^27, D-Arg^28, Har^29, Agm^30]hGH-RH(1-30) [Peptide 60] | 73 % of control and 87 % of control | 27 % of control and 29 % of control | 34 % of control and 65 % of control | 56 % of control and 36 % of control | 42 % of control and 63 % of control | – | – | – | – | – | – | –
9 | – | – | [PhAc-Tyr^1, D-Arg^2, Phe(pCl)^6, Har^9, Tyr(Me)^10, Aib^15, Nle^27, D-Arg^28, Har^29]hGH-RH(1-29)NHEt [Peptide 49] | 83 % of control | 76 % of control | 90 % of control | 87 % of control | 120 % of control | – | – | – | – | – | – | –
10 | – | – | [PhAc-Tyr^1, D-Arg^2, Phe(pCl)^6, Har^9, Tyr(Me)^10, Amp^11, Abu^15, Nle^27, D-Arg^28, Har^29]hGH-RH(1-29)NH2 [Peptide 64] | 59 % of control | 54 % of control | 70 % of control | 50 % of control | 56 % of control | – | – | – | – | – | – | –
11 | – | – | [PhAc-Tyr^1, D-Arg^2, Phe(pCl)^6, Har^9, Tyr(Me)^10, Har^11, Abu^15, Nle^27, D-Arg^28, Har^29]hGH-RH(1-29)NH2 [Peptide 63] | 53 % of control | 47 % of control | 49 % of control | 51 % of control | – | – | – | – | – | – | – | –
12 | – | – | [PhAc-Tyr^1, D-Arg^2, Phe(pCl)^6, Har^9, Tyr(Me)^10, Orn^12, Abu^15, Nle^27, D-Arg^28, Har^29]hGH-RH(1-29)NHEt [Peptide 50] | 57 % of control | 65 % of control | 69 % of control | 74 % of control | 67 % of control | – | – | – | – | – | – | –
